This is an account of results in US5393744A, “Glucosyl phosphotriesters of thymidine” (Institut Pasteur, priority 1988, dated 1995).

The structures appear in SMILES notation. Like-named read-outs stand apart in the source and are kept apart here.

In assay [1] the test system is HIV-1 virus. Put plainly: Replication of HIV-1 in macrophages of sero-negative donors, continuous culture (reverse transcriptase activity). In kind it is cell-based. As to the method:
(§1) The drugs 6651, AZT, 6714 and ddT were diluted in DMSO.
(§2) The virus HIV-1 utilized is derived from a culture supernatant of CEM-LAV 1 cells; these latter are maintained by the addition at each passage (every 3 or 4 days) of uninfected CEM cells. The titre of the virus in the clarified culture supernatant is higher than 10^6 cpm/ml in reverse transcriptase activity and 10^3 infectious units/ml on lymphocytes of sero-negative donors.
(§3) The macrophages were obtained from a deleucocytation pocket. The mononucleated cells were separated on a Ficoll^R gradient. The cells were adjusted to 50.10^6 cells/ml in the RPMI 1640 medium (MBA) containing 20% fetal calf serum (Flow), 10 mM Hepes (Sigma), 1% of PSN and 1% of glutamine (Gibco). After 1 h of incubation at 4° C. with gentle shaking, the macrophages agglutinate among themselves. The agglutinated macrophages are sedimented for 15 mn at 4° C. The supernatant containing an enrichment in lymphocytes was removed and the pellet enriched in macrophages was diluted to 5.10^6 cells/ml in the medium previously described. The cell suspension was then placed in Petri dishes of 60 mm diameter and placed at 37° C. for 1 h 30. The unattached cells are removed and the washed cell carpet was then detached with a scraper. The cells thus recovered were used directly for the study.
(§4) For this study, the production of HIV-1 virus by infected macrophages in the presence or absence of the drugs 6714 or ddT and 6651 or AZT were monitored either in continuous culture for at least 30 days or after lysis of the macrophages at day +14 and infection of lymphocytes by this lysate.
For each test, 15.10^6 cells were or were not infected with the HIV-1 virus (6000 cpm/10^6 cells). After 1 h of absorption at 37° C., the cells were placed in 6-wells Costar plates and 5.10^-5 M or 10^-5 M of the drugs 6714 and ddT and 10^-5 M, 10^-6 M or 10^-7 M of the drugs 6651 and AZT were added to the culture medium. The medium was changed every 3 or 4 days and the reverse transcriptase activity was determined in the culture supernatant. The drugs were added at each passage to the culture medium at the respective concentrations indicated above.
(§5) 3) Measurement of the reverse transcriptase activity
(§6) The reverse transcriptase activity is assayed starting from 1 ml of culture supernatant concentrated 100 times by ultra-centrifugation for 5 mn at 95.000 rpm (Rotor TL 100^R Beckman).
(§7) The pellet is resuspended in 10 μl of NTE Triton^R ×100 0.1%.
(§8) After 1 h at 37° C., the acid-insoluble products are precipitated by 20% trichloroacetic acid, filtered onto 0.45μ Millipore^R and the B radioactivity is measured with the aid of a Kontron scintillation counter.

The test system of assay [2] is HIV-1 virus. Put plainly: Action of the products on the cytopathogenic effect of the HIV-1 virus in MT4 cells. In kind it is cell-based, HIV-1 virus (LAV strain). To be noted: for minimal effective concentration: Human immunodeficiency virus 1, MT4, 168 h. Here is the method:
Each product was dissolved in DMSO at a concentration of 10^-3 M (stock solution), then in the culture medium immediately before use. The solution thus obtained was sterilized by filtration on a 0.22μ Millipore, then successive dilutions were made in the culture medium.
The line of MT4 cells is cultivated at a concentration of 3×10^5 cells/ml in a RPM1640 medium containing 10% of fetal calf serum, 1% of antibiotics and 1% of glummine.
The action of the products on the cytopathogenic effect of the HIV-1 virus was studied with the aid of the line of MT4 cells. This line is a line of human T cells transformed by the HTLV-1 virus. These cells are particularly sensitive to the HIV-1 virus since 6 to 7 days after superinfection by tiny quantities of HIV-1 virus, they show a considerable cytopathogenic effect leading to the death of 10 to 80% of the cells. The cytopathogenic effect is directly correlated with the infection of the cells by the virus, with its intracellular replication and with the expression of the viral antigens by the cells. An inhibition of this effect thus corresponds to an inhibition of the multiplication of the HIV-1 virus.
It is a question of supernatants of lymphoblastoid T cells (CEM line) infected by the HIV-1 virus (LAV strain). The activity of the undiluted viral preparation used for the human lymphocytes was 20000 cpm/ml.
d) Action of the products on the cytopathogenic effect of the HIV-1 virus in the case of the MT4 cells. Study of the treatment after viral absorption.
The MT4 cells were infected by 100 μl of HIV-1 virus for 3.10^5 cells in a volume of 1 ml. […]
At day +3, the cell suspensions were restored to 3.10^5 cells/ml after dilution with fresh medium. The product was added at the corresponding doses.
At day +7, the cytopathogenic effect was evaluated with the microscope after staining with trypan blue.

Assay [3] concerns HIV-1 virus. The assay can be described thus: Infection of activated lymphocytes by the lysates of infected macrophages (co-culture, reverse transcriptase activity). In kind it is cell-based. Here is the method:
as §1, §2
The lymphocytes were isolated from the peripheral blood of sero-negative donors on a Ficoll^R gradient (MSL, Eurobio). The lymphocytes thus obtained were stimulated with the phytohemaglutinin p(PHA-p) for 3 days before their utilization.
The lymphocytes are cultivated in RPMI 1640 medium, supplemented with 10% of fetal calf serum, 10% of interleukin 2, 2 μg/ml of polybrene, 1% of glutamine, 1% of antibiotics.
as §3, §4
The quantity of cells placed in culture and the conditions of infection are identical with those previously described.
At day 14 after infection, the macrophages were lysed by two successive freezings to -20° C. and thawings at 37° C. The lysate recovered was then utilized as inoculum to infect 3.10^6 activated lymphocytes derived from a sero-negative donor. After 1 h of absorption, the lymphocytes were adjusted to 10^6 cells per ml and the drugs were added at the concentrations corresponding to those of the lysate.
The lymphocytes were subcultured every 3 or 4 days and an assay of the reverse transcriptase was carried out starting from the culture supernatant at each passage.
as §5, §6, §7, §8

In the case of `CCCCCCCCCCCCCCCCOP(=O)(OC[C@H]1OC(O)[C@H](O)[C@@H](O)[C@@H]1O)OC[C@H]1O[C@@H](n2cc(C)c(=O)[nH]c2=O)C[C@@H]1N=[N+]=[N-]` (some centres unmarked) [compound 6651, 6-glucosyl hexadecyl 5'-(3'-azido) thymidinyl phosphate], the “proliferation of the HIV-1 virus in the macrophages” value in assay [1] (10^-5 M, 10^-6 M and 10^-7 M) is “block the proliferation of the HIV-1 virus in the macrophages”. The “Cytopathogenic Effect at Day +7” value was “-” in assay [2] (5 × 10^-6 M, Experiment No. 1); “+ (100% death of the cells at day +7)” in assay [2] (5 × 10^-6 M, Experiment No. 2); “+ (100% death of the cells at day +7)” in assay [2] (5 × 10^-7 M, Experiment No. 1); “+ (100% death of the cells at day +7)” in assay [2] (5 × 10^-7 M, Experiment No. 2); “-” in assay [2] (10^-5 M, Experiment No. 1); “-” in assay [2] (10^-5 M, Experiment No. 2). For the same compound, the “Cytopathogenic Effect at Day +7” value is given as “-” in assay [2] (10^-6 M, Experiment No. 1) and “+ (100% death of the cells at day +7)” in assay [2] (10^-6 M, Experiment No. 2). For the same compound, the minimal effective concentration was 1 µM in assay [2] (first experiment, MT4 cells, read-out: concentration at which the product inhibits the cytopathogenic effect) and 10 µM in assay [2] (second experiment, MT4 cells, read-out: concentration at which the product inhibits the cytopathogenic effect). In addition, the “viral production on the lymphocytes with the lysates of treated macrophages” value is recorded as “no viral production is obtained on the lymphocytes” in assay [3] (10^-5 M and 10^-6 M (FIG. 4c)); “A low viral production is observed” in assay [3] (10^-7 M (FIG. 4c)). Moreover, the “multiplication of the HIV-1 virus at the interior of the macrophage” value in assay [3] (10^-5 M and 10^-6 M, same result as AZT (no multiplication)) is “this same result is obtained”. Moreover, in assay [3] (10^-7 M), the “multiplication of the HIV-1 virus in the macrophages” value was “there is multiplication of the HIV-1 virus in the macrophages, but the escape of the virus seems to be blocked”.
Turning to `Cc1cn([C@H]2CC[C@@H](COP(=O)(O)OC[C@H]3OC(O)[C@H](O)[C@@H](O)[C@@H]3O)O2)c(=O)[nH]c1=O` (some centres unmarked) [compound 6714, 6-glucosyl 5'-(3'-deoxy)-thymidinyl phosphate], in assay [1] (5.10^-5 M and 10^-5 M), the “proliferation of the HIV-1 virus in the macrophages” value is “block the proliferation of the HIV-1 virus in the macrophages”. Moreover, the “Cytopathogenic Effect at Day +7” value is listed as “+ (100% death of the cells at day +7)” in assay [2] (5 × 10^-6 M, Experiment No. 2); “-” in assay [2] (10^-5 M, Experiment No. 2); “+ (100% death of the cells at day +7)” in assay [2] (10^-6 M, Experiment No. 2). Besides, the minimal effective concentration in assay [2] (read-out: concentration at which the product inhibits the cytopathogenic potency of the virus) worked out at 10 µM. In addition, in assay [3] (lysate at day 14), the “viral production by activated lymphocytes with lysates of infected treated macrophages (general statement)” value is recorded as “make it possible to obtain a vital production by activated lymphocytes”. The “viral production by activated lymphocytes, compared to untreated lysate” value in assay [3] (whatever the concentration tested (5.10^-5 M, 10^-5 M)) was “comparable to the untreated lysate”. The “multiplication of the HIV-1 virus in the macrophages” value in assay [3] (whatever the concentration tested, 5.10^-6 M or 10^-5 M) is “there is multiplication of the HIV-1 virus in the macrophages, but the escape of the virus seems to be blocked”.
